Measured values as given in US9243281B2, “Neuroprotective chemicals and methods for identifying and using same” (Board of Regents of The University of Texas System, priority 2013, dated 2016).

How the values were obtained:
[1] = tested on: hippocampal neurogenesis (Dentate Gyrus); test: in vivo neurogenesis assay (BrdU+ cells in dentate gyrus); parameters: species or system mice; conditions: living mice; vehicle (DMSO) 7.3
Description: The screen was simple in concept. With help from chemists in the Department of Biochemistry at UTSWMC, we selected 1,000 druglike chemicals from the 250,000 compounds in our high throughput screening center. The compounds were selected to preserve representative chemical diversity of the entire library. They were further selected to enhance the representation of chiral molecules, and to avoid untoward chemical properties such as reactive moieties. The 1,000 molecules were randomly pooled into groups of ten, and each pool was administered directly into the left ventricle of two adult mice. Intracranial delivery was facilitated by stereotactic positioning of a canula fed directly by an Alzet mini-pump containing the mixture of ten chemicals. The drug mixture was administered over a week-long period at concentrations anticipated to deliver mid-nanomolar levels of the ten test compounds. Daily injections of the thymidine analog, bromodeoxyuridine (BrdU), were coadministered in order to monitor the formation of new hippocampal nerve cells. Following compound administration, animals were sacrificed such that brain tissue could be recovered, sectioned and stained with antibodies to BrdU. […]

p70 (NAMPT) = molecular target: T1, p70 (NAMPT) (Homo sapiens, UniProt P43490); test: binding competition for photo-crosslinking of P7C3-S326 to p70 in H2122 cells; conditions: 0.3 μM P7C3-S326 plus 5 μM competitor, p70 band intensity, P7C3-S326 alone compared with plus competitor, vehicle 1.0
T1 construct: endogenous in cells; host or cells: H2122 lung cancer cells
Method: Cultured cells were co-exposed to P7C3-S326 (0.3 uM) and the individual P7C3 variants (5 uM), exposed to UV light, lysed, clicked to a fluorescent dye and run on SDS gels (FIG. 11).
P7C3-S326 was diluted to 0.3 μM in culture medium to treat H2122 cells. After incubation at 37° C. for 2 hours, H2122 cells were irradiated for 15 minutes under 306 nm ultraviolet light in a Stratalinker 2400 (Stratagene). Cells were then harvested by dissolving in 1% SDS lysis buffer 50 mM HEPES, pH 8.0, 2 mM MgCl2, 10 mM KCl, 1% SDS, 50 units/ml of Benzonase (Sigma), supplemented with Sigmafast protease inhibitor (Sigma).
The reaction was incubated at room temperature with constant agitation at 1,000 rpm on a thermomixer (Eppendorf) for 1 hour. Samples were then mixed with SDS sample loading buffer and loaded on an 8% SDS-PAGE gel, separated, and imaged using a Typhoon imager (filter settings: excitation 533 nm, emission 555 nm, and high sensitivity).
H2122 cells were incubated with the P7C3-S326 (0.3 μM) in the absence or presence of P7C3 analogs for 2 hours following by UV crosslinking. […] The samples were run on SDS-PAGE gels scanned using a Typhoon Imager. The p70 band intensity was analyzed and quantified by Image J, and the relative intensity in each assay was normalized to that of the DMSO control.

T1 sequence (P43490 whole entry): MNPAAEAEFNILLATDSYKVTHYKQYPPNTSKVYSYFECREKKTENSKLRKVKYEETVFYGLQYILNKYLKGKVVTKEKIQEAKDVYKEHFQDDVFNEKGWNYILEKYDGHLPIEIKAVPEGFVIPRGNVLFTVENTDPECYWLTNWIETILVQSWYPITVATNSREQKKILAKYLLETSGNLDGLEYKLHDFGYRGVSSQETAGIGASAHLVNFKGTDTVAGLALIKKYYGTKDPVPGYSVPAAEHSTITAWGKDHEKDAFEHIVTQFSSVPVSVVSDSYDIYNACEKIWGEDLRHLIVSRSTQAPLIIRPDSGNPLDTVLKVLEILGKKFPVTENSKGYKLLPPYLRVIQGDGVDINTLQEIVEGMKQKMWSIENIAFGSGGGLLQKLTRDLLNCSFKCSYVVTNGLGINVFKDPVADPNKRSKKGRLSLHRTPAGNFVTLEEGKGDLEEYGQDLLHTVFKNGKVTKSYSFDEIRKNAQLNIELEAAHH

| Structure (SMILES) | Neurogenesis # BrdU+ Cells (X10E06)/mm3 Dentate Gyrus [1] | Binding competition (p70 (NAMPT)) |
| --- | --- | --- |
| CCOC(=O)c1cc2c(cn1)[nH]c1ccc(Br)cc12 [S205] | 14.6 (X10E06)/mm3 | 2.5 |
| OC(CNc1ncccn1)Cn1c2ccc(Br)cc2c2cc(Br)ccc21 (centres unmarked) [S8] | 7.8 (X10E06)/mm3 | 4.7 |
| COCC(O)Cn1c2ccc(Br)cc2c2cc(Br)ccc21 (centres unmarked) [S19] | 10.5 (X10E06)/mm3 | 2.9 |
| CCOC(=O)Cn1c2ccc(Br)cc2c2cc(Br)ccc21 [S164] | 7.6 (X10E06)/mm3 | 1.3 |
| OC(COc1ccccc1)Cn1c2ccc(Br)cc2c2cccnc21 (centres unmarked) [S186] | 8.1 (X10E06)/mm3 | 3.4 |
| OC(CCc1ccccc1)Cn1c2ccc(Br)cc2c2cc(Br)ccc21 (centres unmarked) [S21] | 8.8 (X10E06)/mm3 | 2.3 |
| OC(COc1ccccc1)Cn1c2ccc(Br)cc2c2cc(Br)ccc21 (centres unmarked) [S39] | 14.8 (X10E06)/mm3 | 2.6 |
| CN1CCN2c3ncccc3Cc3ccccc3C2C1 (centres unmarked) [S126, Remeron, reference compound] | 8.8 (X10E06)/mm3 | 1.3 |
| COc1cccc(NCC(C)(O)Cn2c3ccc(Br)cc3c3cc(Br)ccc32)c1 (centres unmarked) [S54] | 16.7 (X10E06)/mm3 | 3.8 |
| N#Cc1ccc2c(c1)c1cc(C#N)ccc1n2CC(O)COc1ccccc1 (centres unmarked) [S111] | 12.3 (X10E06)/mm3 | 4.1 |
| O=C(O)c1cc2c3ccccc3n(CC(O)COc3ccccc3)c2cn1 (centres unmarked) [S172] | 14.2 (X10E06)/mm3 | 1.1 |
| [O-][S+](CC(O)Cn1c2ccc(Br)cc2c2cc(Br)ccc21)c1ccccc1 (centres unmarked) [S27] | 8.1 (X10E06)/mm3 | 2.8 |
| O=S(=O)(CC(O)Cn1c2ccc(Br)cc2c2cc(Br)ccc21)c1ccc(O)cc1 (centres unmarked) [S94] | 8.5 (X10E06)/mm3 | 3.8 |
| CNCCC(Oc1ccc(C(F)(F)F)cc1)c1ccccc1 (centres unmarked) [S122, Prozac, reference compound] | 10.0 (X10E06)/mm3 | 1.4 |
| Cc1ccc2c(c1)c1c(n2CC(O)CNc2ccccc2)CCN(C)C1 (centres unmarked) [S46] | 9.2 (X10E06)/mm3 | 1.9 |
| COc1ccc(OCC(O)Cn2c3ccc(Br)cc3c3cc(Br)ccc32)cc1 (centres unmarked) [S49] | 12.0 (X10E06)/mm3 |  |
| O[C@H](COc1ccccc1)Cn1c2ccc(Br)cc2c2cc(Br)ccc21 [S41] | 15.3 (X10E06)/mm3 | 3.4 |
| COc1cccc(N(/C=C/Cn2c3ccc(Br)cc3c3cc(Br)ccc32)S(=O)(=O)C(F)(F)F)c1 [S179] | 17.3 (X10E06)/mm3 | 0.9 |
| O=c1ccccn1CC(O)Cn1c2ccc(Br)cc2c2cc(Br)ccc21 (centres unmarked) [S137] | 12.2 (X10E06)/mm3 | 4.5 |
| COc1cccc(NCC(O)Cn2c3ccccc3c3cc(Br)ccc32)c1 (centres unmarked) [S29] | 9.5 (X10E06)/mm3 | 4.2 |
| COc1ccc(SCC(O)Cn2c3ccc(Br)cc3c3cc(Br)ccc32)cc1 (centres unmarked) [S78] | 14.1 (X10E06)/mm3 | 2.7 |
| O=C(O)CN1c2ccccc2CCc2ccccc21 [S210] | 10.7 (X10E06)/mm3 | 1.1 |
| COc1cccc(NC[C@@H](O)Cn2c3ccc(Br)cc3c3cc(Br)ccc32)c1 [S17] | 14.9 (X10E06)/mm3 | 1.9 |
| COc1cccc(N(CC(O)Cn2c3ccc(Br)cc3c3cc(Br)ccc32)C(C)=O)c1 (centres unmarked) [S9] | 11.9 (X10E06)/mm3 | 2.0 |
| CN(C)CCCN1c2ccccc2Sc2ccc(Cl)cc21 [S121, CPZ, reference compound] | 11.1 (X10E06)/mm3 | 2.3 |
| O=S(=O)(C[C@H](O)Cn1c2ccc(Br)cc2c2cc(Br)ccc21)c1ccccc1 [S51] | 13.2 (X10E06)/mm3 | 2.4 |
| CC(C)(C)NCC(O)CN1c2ccccc2CCc2ccccc21 (centres unmarked) [S145] | 12.5 (X10E06)/mm3 | 2.6 |
| O=C(O)Cn1c2ccc(Br)cc2c2cc(Br)ccc21 [S165] |  | 1.3 |

| Structure (SMILES) | Neurogenesis # BrdU+ Cells (X10E06)/mm3 Dentate Gyrus [1] | Binding competition (p70 (NAMPT)) |
| --- | --- | --- |
| CN(C)c1nc(O)c2[nH]c3ccccc3c2n1 [S245] | 16.2 (X10E06)/mm3 | 1.0 |
| COc1ccc2[nH]c3ccc(Br)cc3c2c1 [S209] | 15.0 (X10E06)/mm3 | 3.7 |
| O=C(COc1ccc(SCC(O)Cn2c3ccc(Br)cc3c3cc(Br)ccc32)cc1)NCc1ccccc1 (centres unmarked) [S99] | 7.6 (X10E06)/mm3 | 2.5 |
| CC(C)(C)OC(=O)NCCCCCOc1ccc(S(=O)(=O)CC(O)Cn2c3ccc(Br)cc3c3cc(Br)ccc32)cc1 (centres unmarked) [S141] | 11.3 (X10E06)/mm3 | 2.7 |
| CN(C)CCCC1(c2ccc(F)cc2)OCc2cc(C#N)ccc21 (centres unmarked) [S119, Celexa, reference compound] | 8.6 (X10E06)/mm3 | 1.2 |
| CC(C(N)=O)n1c2ccc(Br)cc2c2cc(Br)ccc21 (centres unmarked) [S220] | 10.5 (X10E06)/mm3 | 2.9 |
| COc1ccc2[nH]cc(CCNC(C)=O)c2c1 [S193] | 7.8 (X10E06)/mm3 | 1.1 |
| NC(=O)c1ccc2c(c1)c1cc(Br)ccc1n2CC(=O)O [S238] | 9.4 (X10E06)/mm3 | 0.9 |
| O=C(COc1cccc(S(=O)(=O)CC(O)Cn2c3ccc(Br)cc3c3cc(Br)ccc32)c1)NCc1ccccc1 (centres unmarked) [S102] | 8.9 (X10E06)/mm3 |  |
| Fc1ccc([C@@H]2CCNC[C@H]2COc2ccc3c(c2)OCO3)cc1 [S120, Paxil, reference compound] |  | 1.3 |
| OC(CNc1cccc2ccccc12)Cn1c2ccccc2c2ccccc21 (centres unmarked) [S180] |  | 3.2 |
| OC(Cn1c2ccccc2c2ccccc21)Cn1c2ccc(Br)cc2c2cc(Br)ccc21 (centres unmarked) [S35] | 8.6 (X10E06)/mm3 |  |
| COc1cccc(N(C)CC(O)Cn2c3ccc(Br)cc3c3cc(Br)ccc32)c1 (centres unmarked) [S1] | 10.8 (X10E06)/mm3 |  |
| COc1ccc(OCC2(Cn3c4ccc(Br)cc4c4cc(Br)ccc43)NN2)cc1 [S57] | 11.9 (X10E06)/mm3 |  |
| C#Cc1ccc2c(c1)c1cc(C#C)ccc1n2CC(O)CNc1cccc(OC)c1 (centres unmarked) [S64] | 8.6 (X10E06)/mm3 |  |
| CC(C)(C)OC(=O)CCOCCOCCOCCOc1ccc(S(=O)(=O)CC(O)Cn2c3ccc(Br)cc3c3cc(Br)ccc32)cc1 (centres unmarked) [S130] |  | 2.9 |
| CN(C)CCCN1c2ccccc2CCc2ccccc21.Cl [S88, Imipramine, reference compound] | 7.8 (X10E06)/mm3 |  |
| OC(CCn1c2ccc(Br)cc2c2cc(Br)ccc21)CNc1ccccc1 (centres unmarked) [S26] | 7.5 (X10E06)/mm3 |  |
| CC(NC(C)(C)C)C(=O)c1cccc(Cl)c1 (centres unmarked) [S125, Wellbutrin, reference compound] |  | 1.1 |
| Brc1ccc2c(c1)c1cc(Br)ccc1n2CCNc1ccccc1 [S115] |  | 3.7 |
| OC(CNc1ccccc1)Cn1c2ccc(C(F)(F)F)cc2c2cc(C(F)(F)F)ccc21 (centres unmarked) [S75] |  | 2.5 |
| O=C(Cn1c2ccc(Br)cc2c2cc(Br)ccc21)Nc1ccccc1 [S112] |  | 1.2 |
| FC(CNc1ccccc1)Cn1c2ccc(Br)cc2c2cc(Br)ccc21 (centres unmarked) [S55] | 13.8 (X10E06)/mm3 |  |
| Cn1c2ccc(Br)cc2c2cc(Br)ccc21 [S163] |  | 2.5 |
| CN(C)C[C@H](O)CN1c2ccccc2CCc2ccccc21 [S181] |  | 0.9 |
| OC(CNC1CCCC1)Cn1c2ccc(Br)cc2c2cc(Br)ccc21 (centres unmarked) [S176] |  | 4.1 |
| Brc1ccc2[nH]c3ccc(Br)cc3c2c1 [S162] |  | 2.3 |
